How the values were obtained:
BRD4 (BDII_E352-M457) = target: T1, BRD4 (BDII_E352-M457) (Homo sapiens, UniProt O60885); assay: TR-FRET bromodomain binding assay, BRD4 second bromodomain
T1 construct: protocol; made in house
Method: (§1) A time-resolved fluorescence resonance energy transfer (TR-FRET) assay was used to determine the affinities of compounds of the Examples listed in Table 1 for each bromodomain of BRD4. His-tagged first (BD1: amino acids K57-E168) and second (BD2: amino acids E352-E168) bromodomains of BRD4 were expressed and purified. An Alexa647-labeled BET-inhibitor was used as the fluorescent probe in the assay.
(§2) Compound dilution series were prepared in DMSO via an approximately 3-fold serial dilution from one of the following:
(§3) Assay method D: 500 μM-8.5 nM
(§4) Assay method E: 0.47 mM to 7.8 nM
(§5) Assay method F: 250 μM-4.2 nM
(§6) Assay method G: 0.047 mM to 0.78 nM
(§7) or 5-fold serial dilution from one of the following:
(§8) Assay method A: 2.5 mM-800 nM
(§9) Assay method B: 2.5 mM-797 nM
(§10) For Assay methods A, C, D, and F: Compounds were then diluted 6:100 in assay buffer (20 mM Sodium Phosphate, pH 6.0, 50 mM NaCl, 1 mM Ethylenediaminetetraacetic acid, 0.01% Triton X-100, 1 mM DL-Dithiothreitol) to yield 3× working solutions. Six microliters (μL) of the working solution was then transferred to white, low-volume assay plates (Costar #3673). A 1.5× assay mixture containing His-tagged bromodomain, Europium-conjugated anti-His antibody (Invitrogen PV5596) and the Alexa-647-conjugated probe molecule was also prepared. Twelve μL of this solution were added to the assay plate to reach a final volume of 18 μL.
(§11) For Assay methods B, E, and G: Compound dilutions were added directly into white, low-volume assay plates (Perkin Elmer Proxiplate 384 Plus#6008280) using a Labcyte Echo in conjunction with Labcyte Access and Thermo Multidrop CombinL robotics. Compounds were then suspended in eight microliters (μL) of assay buffer (20 mM Sodium Phosphate, pH 6.0, 50 mM NaCl, 1 mM Ethylenediaminetetraacetic acid disodium salt dihydrate, 0.01% Triton X-100, 1 mM DL-Dithiothreitol) containing His-tagged bromodomain, Europium-conjugated anti-His antibody (Invitrogen PV5596) and Alexa-647-conjugated probe.
(§12) The final concentration of 1× assay mixture for assay methods A, B, C, D, E, F, and G contains 2% DMSO, 8 nM His-tagged bromodomain, 1 nM Europium-conjugated anti-His-tag antibody and 100 nM or 30 nM probe (for BDI or BDII, respectively) and compound concentration in the range of: 50 μM-16 nM for method A, 49.02 μM-15.63 nM for method B, 25 μM-423 pM for method C, 10 μM-169 pM for method D, 9.19 μM 150 pM for method E, 5 μM-85 pM for method F, and 0.92 μM-15 pM for method G.
(§13) After a one-hour equilibration at room temperature, TR-FRET ratios were determined using an Envision multilabel plate reader (Ex 340, Em 495/520).
(§14) TR-FRET data were normalized to the means of 24 no-compound controls (“high”) and 8 controls containing 1 μM un-labeled probe (“low”). Percent inhibition was plotted as a function of compound concentration and the data were fit with the 4 parameter logistic equation to obtain IC50s Inhibition constants (Ki) were calculated from the IC50s, probe Kd and probe concentration. Typical Z′ values were between 0.65 and 0.75. The minimum significant ratio was determined to evaluate assay reproducibility (Eastwood et al., (2006) J Biomol Screen, 11: 253-261). The MSR was determined to be 2.03 for BDI and 1.93 for BDII, and a moving MSR (last six run MSR overtime) for both BDI and BDII was typically <3.

BRD4 (BDI_K57-E168) = target: T2, BRD4 (BDI_K57-E168) (Homo sapiens, UniProt O60885); assay: TR-FRET bromodomain binding assay, BRD4 first bromodomain; settings: His-tagged BD1, 100 nM Alexa647 probe; assay protocol D or F as given per row in c1; Ki calculated from IC50
T2 construct: BD1: amino acids K57-E168; made in house
Method: as §1, §2, §3, §4, §5, §6, §7, §8, §9, §10, §11, §12, §13, §14

[1] = system: breast cancer cell line MX-1; assay: MX-1 cell line proliferation assay; format: cell-based; settings: Homo sapiens, MX1; MX-1 cells, 3-day (72 h) proliferation, Cell Titer Glo; read-out: Cellular proliferation: EC50
Method: MX-1 Cell Line Proliferation Assay
The impact of compounds of the Examples on cancer cell proliferation was determined using the breast cancer cell line MX-1 (ATCC) in a 3-day proliferation assay and the data are reported in Table 1. MX-1 cells were maintained in RPMI 1640 medium (Sigma) supplemented with 10% FBS at 37 C.° and an atmosphere of 5% CO2. For compound testing, MX-1 cells were plated in 96-well black bottom plates at a density of 5000 cells/well in 90 μL of culture media and incubated at 37° overnight to allow cell adhesion and spreading. Compound dilution series were prepared in DMSO via a 3-fold serial dilution from 3 mM to 0.1 μM. The DMSO dilution series were then diluted 1:100 in phosphate buffered saline, and 10 μL of the resulted solution were added to the appropriate wells of the MX-1 cell plate. The final compound concentrations in the wells were 3, 1, 0.3, 0.1, 0.03, 0.01, 0.003, 0.001, 0.0003 and 0.0001 μM.
Luminescence readings from the Cell Titer Glo assay were normalized to the DMSO treated cells and analyzed using the GraphPad Prism software with sigmoidal curve fitting to obtain EC50s. The minimum significant ratio (MSR) was determined to evaluate assay reproducibility (Eastwood et al., (2006) J Biomol Screen, 11: 253-261). The overall MSR was determined to be 2.1 and a moving MSR (last six run MSR overtime) has been <2.

Compound | Ki (BRD4 (BDII_E352-M457)) [nM] | Ki (BRD4 (BDI_K57-E168)) [nM] | EC50 [1] [nM]
Cn1cc2c3c(c[nH]c(=O)c31)CN(c1ccc(F)cc1)c1ncc(NC(=O)Cc3ccc(Cl)cc3F)cc1-2 [Example 20] | 4.69 | 1.76 | 36.5
Cn1cc2c3c(c[nH]c(=O)c31)CN(c1ccc(F)cc1)c1ncc(NC(=O)Cc3ccc4c(c3)CCCO4)cc1-2 [Example 21] | 2.69 | 1.05 | 16.6
Cn1cc(CC(=O)Nc2cnc3c(c2)-c2cn(C)c4c(=O)[nH]cc(c24)CN3c2ccc(F)cc2)cn1 [Example 22] | 3.03 | 1.29 | 16.5
Cn1cc2c3c(c[nH]c(=O)c31)CN(c1ccc(F)cc1)c1ccc(N)cc1-2 [Example 23] | 7.54 | 1.38 | 4.79
Cn1cc2c3c(c[nH]c(=O)c31)C(c1ccccc1)Nc1ccc(CS(C)(=O)=O)cc1-2 (stereo not drawn) [Example 25] | 124 | 192 | > 1000
Cn1cc2c3c(c[nH]c(=O)c31)CN(c1ccc(F)cc1)c1ccc(NS(=O)(=O)c3ccccc3)cc1-2 [Example 26] | 3.12 | 0.27 | 9.48
CC(=O)Nc1ccc(S(=O)(=O)Nc2ccc3c(c2)-c2cn(C)c4c(=O)[nH]cc(c24)CN3c2ccc(F)cc2)cc1 [Example 27] | 1.73 | 0.2 | 8.56
Cn1cc(CC(=O)Nc2ccc3c(c2)-c2cn(C)c4c(=O)[nH]cc(c24)CN3c2ccc(F)cc2)cn1 [Example 28] | 8.21 | 1.17 | 13.5
Cn1cc2c3c(c[nH]c(=O)c31)CN(c1ccc(F)cc1)c1ccc(NC(=O)Cc3cc(F)ccc3Cl)cc1-2 [Example 30] | 21.8 | 3.53 | 51.2
Cc1ncc(CC(=O)Nc2ccc3c(c2)-c2cn(C)c4c(=O)[nH]cc(c24)CN3c2ccc(F)cc2)s1 [Example 32] | 11.6 | 1.37 | 12.3
Cc1cc(CC(=O)Nc2ccc3c(c2)-c2cn(C)c4c(=O)[nH]cc(c24)CN3c2ccc(F)cc2)nn1C [Example 33] | 6.39 | 1.49 | 17.4
Cn1cc2c3c(c[nH]c(=O)c31)CN(c1ccc(F)cc1)c1ccc(NC(=O)CCCC(=O)Nc3ccccc3)cc1-2 [Example 34] | 24.9 | 2.2 | 47.9
Cc1cnc(C(=O)Nc2ccc3c(c2)-c2cn(C)c4c(=O)[nH]cc(c24)CN3c2ccc(F)cc2)cn1 [Example 35] | 18.9 | 2.01 | 26.4
CCn1ccc(CNc2ccc3c(c2)-c2cn(C)c4c(=O)[nH]cc(c24)CN3c2ccc(F)cc2)n1 [Example 37] | 7.42 | 1.07 | 19
Cn1nccc1CNc1ccc2c(c1)-c1cn(C)c3c(=O)[nH]cc(c13)CN2c1ccc(F)cc1 [Example 38] | 9.3 | 1.52 | 9
Cn1cc2c3c(c[nH]c(=O)c31)CN(c1ccc(F)cc1)c1ccc(NCCCn3cccn3)cc1-2 [Example 39] | 12.3 | 1.94 | 23.2
Cc1cccc(CNc2ccc3c(c2)-c2cn(C)c4c(=O)[nH]cc(c24)CN3c2ccc(F)cc2)n1 [Example 40] | 7.27 | 0.86 | 25.5
COC(=O)CCCNc1ccc2c(c1)-c1cn(C)c3c(=O)[nH]cc(c13)CN2c1ccc(F)cc1 [Example 41] | 12.5 | 1.73 | 55.6
Cn1cncc1CNc1ccc2c(c1)-c1cn(C)c3c(=O)[nH]cc(c13)CN2c1ccc(F)cc1 [Example 42] | 13.4 | 2.07 | 9.83
Cc1cccnc1CNc1ccc2c(c1)-c1cn(C)c3c(=O)[nH]cc(c13)CN2c1ccc(F)cc1 [Example 43] | 6.49 | 1.25 | 17.3
Cn1cc2c3c(c[nH]c(=O)c31)CN(c1ccc(F)cc1)c1ccc(NC(=O)Nc3cccc(Oc4ccccc4)c3)cc1-2 [Example 44] | > 408 | 53.3 | > 1000
CN1CCN(CCC(=O)Nc2ccc3c(c2)-c2cn(C)c4c(=O)[nH]cc(c24)CN3c2ccc(F)cc2)CC1 [Example 47] | 13.3 | 1.14 | 14.3
Cn1cc2c3c(c[nH]c(=O)c31)CN(c1ccc(F)cc1)c1ccc(NC(=O)CCN3CCCCC3)cc1-2 [Example 48] | 19.5 | 2.39 | 29.5
Cn1cc2c3c(c[nH]c(=O)c31)CN(c1ccc(F)cc1)c1ccc(NC(=O)Cc3cc(F)ccc3Br)cc1-2 [Example 49] | 29.8 | 2.74 | 65.1
Cn1cc2c3c(c[nH]c(=O)c31)CN(c1ccc(F)cc1)c1ccc(NC(=O)Cc3cc(Cl)ccc3Cl)cc1-2 [Example 50] | 33.1 | 5.94 | 63.7
Cn1cc2c3c(c[nH]c(=O)c31)CN(c1ccc(F)cc1)c1ccc(NC(=O)Cc3cc(F)ccc3F)cc1-2 [Example 52] | 55.9 | 2.76 | 55.9
Cc1ccc(F)cc1CNC(=O)c1ccc2c(c1)-c1cn(C)c3c(=O)[nH]cc(c13)CN2c1ccc(F)cc1 [Example 57] | 29 | 1.72 | 54.9
Cn1cc2c3c(c[nH]c(=O)c31)CN(c1ccc(F)cc1)c1ccc(C(=O)NCc3cc(F)ccc3Br)cc1-2 [Example 58] | 12.7 | 1.83 | 63.3

Source: patent US8980879B2 (AbbVie Inc., priority 2013, dated 2015)
